Results published in patent US5364882A, “Oxysulfonyl urea ACAT inhibitors” (Warner-Lambert Company, priority 1992, dated 1994).

Columns and labels:
[1] = APCC in vivo screen: blood cholesterol in rats on high fat, high cholesterol diet with 0.5% cholic acid; set-up: species or system male Sprague-Dawley rats; details: 30 mg/kg single dose at 4 PM, high cholesterol diet overnight, blood at 8 AM, vehicle CMC/Tween
Experimental: In one in vivo screen designated APCC, male Sprague-Dawley rats (200 to 225 g) were randomly divided into treatment groups and dosed at 4 PM with either vehicle (CMC/Tween) or suspensions of compounds in vehicle (30 mg/kg). The normal chow diet was then replaced with a high fat, high cholesterol diet with 0.5% cholic acid. The rats consumed this diet ad libitum during the night and were sacrificed at 8 AM to obtain blood samples for cholesterol analysis using standard procedures. Statistical differences between mean cholesterol values for the same vehicle were determined using analysis of variance followed by Fisher's least significant test.

[2] = target: T1, acyl-CoA: cholesterol acyltransferase (ACAT) (Oryctolagus cuniculus, UniProt G1SFD9); assay: In vitro ACAT inhibition (IAI): formation of radiolabeled cholesterol oleate from radiolabeled oleic acid in rabbit intestinal microsomes; type: biochemical; details: concentration required to inhibit enzyme activity by 50%
T1 sequence (G1SFD9 1-524): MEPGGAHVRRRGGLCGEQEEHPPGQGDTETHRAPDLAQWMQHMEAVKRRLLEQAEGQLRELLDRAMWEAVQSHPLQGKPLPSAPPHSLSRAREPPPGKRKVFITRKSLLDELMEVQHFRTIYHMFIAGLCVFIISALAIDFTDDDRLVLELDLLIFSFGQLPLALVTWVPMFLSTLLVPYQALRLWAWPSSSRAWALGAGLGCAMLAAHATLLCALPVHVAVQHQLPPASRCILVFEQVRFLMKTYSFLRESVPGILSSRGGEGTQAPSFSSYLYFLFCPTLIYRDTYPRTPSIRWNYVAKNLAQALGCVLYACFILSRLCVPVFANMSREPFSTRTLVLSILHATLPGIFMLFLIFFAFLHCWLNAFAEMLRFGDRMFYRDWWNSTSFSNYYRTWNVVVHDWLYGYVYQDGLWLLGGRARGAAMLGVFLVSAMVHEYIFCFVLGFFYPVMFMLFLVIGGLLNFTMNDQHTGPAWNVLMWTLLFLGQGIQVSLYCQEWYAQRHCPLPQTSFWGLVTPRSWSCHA
Experimental: The ability of representative compounds of the present invention to inhibit ACAT was measured using an in vitro test more fully described in F. J. Field and R. G. Salone, Biochemica et Biophysica 712:557-570 (1982). The test assesses the ability of a test compound to inhibit the acylation of cholesterol by oleic acid by measuring the amount of radiolabeled cholesterol oleate formed from radiolabeled oleic acid in a tissue preparation containing rabbit intestinal microsomes.

Row | Structure (SMILES) | % Change (mg/dl) in cholesterol [1] | IC50 [2]
1 | CCCCCCCCCCCCOS(=O)(=O)NC(=O)Nc1c(C(C)C)cccc1C(C)C.[Na] | -58% | 
2 | CCCCCCC(C)OS(=O)(=O)NC(=O)Nc1c(C(C)C)cccc1C(C)C (racemic) [Example 6, (±) 1-Methylheptyl [[[2,6-bis(1-methylethyl)phenyl]amino]carbonyl]sulfamate] | -43% | 8.7 µM
3 | CCCCCCCCCCC(C)OS(=O)(=O)NC(=O)Nc1c(C(C)C)cccc1C(C)C (racemic) [Example 8, (±) 1-Methylundecyl [[[2,6-bis(1-methylethyl)phenyl]amino]carbonyl]sulfamate] | -68% | 
4 | CCCCCCOS(=O)(=O)NC(=O)Nc1c(C(C)C)cccc1C(C)C [Example 1, Hexyl [[[2,6-bis(1-methylethyl)phenyl]amino]carbonyl]sulfamate] | -56% | 
5 | CCCCCCCCCCCCCCCCCCOS(=O)(=O)NC(=O)Nc1c(C(C)C)cccc1C(C)C [Example 2, Octadecyl [[[2,6-bis(1-methylethyl)phenyl]amino]carbonyl]sulfamate] | -42% | 
6 | CCCCCCCCCCCCOS(=O)(=O)NC(=O)Nc1c(C(C)C)cccc1C(C)C [Example 3, Dodecyl [[[2,6-bis(1-methylethyl)phenyl]amino]carbonyl]sulfamate] | -75% | 
7 | CCCCCCCCCCOS(=O)(=O)NC(=O)Nc1c(C(C)C)cccc1C(C)C [Example 5, Decyl [[[2,6-bis(1-methylethyl)phenyl]amino]carbonyl]sulfamate] | -31% | > 10 µM
8 | CC(C)c1cccc(C(C)C)c1NC(=O)NS(=O)(=O)Oc1c(C(C)C)cccc1C(C)C [Example 7, 2,6-bis(1-methylethyl)phenyl [[[2,6-bis (1-methylethyl)phenyl]amino]carbonyl]sulfamate] | -51% | 35 µM
